Laboratory results: US7612211B2, “Benzimidazole TRPV1 inhibitors” (Janssen Pharmaceutica N.V., priority 2006, dated 2009)

Assays:
[1] = system: male Sprague-Dawley rats; assay: CFA-induced inflammatory pain, reversal of thermal hyperalgesia (radiant heat paw stimulator); format: in vivo; settings: Rattus norvegicus, po, 10 mg/kg orally, 24 h after CFA, maximal during the 300 min test, read-out: % Reversal (maximal percent reversal of hypersensitivity)
Method: Compounds of the present invention were tested in animal models of inflammation and inflammatory pain. To assess the ability of test compounds to reverse thermal hyperalgesia, baseline response latencies on a radiant heat (RH) paw stimulator were obtained before an intraplantar injection of 100 μL (1 μg/μL) CFA (1:1 CFA:saline) in male Sprague-Dawley rats. Only withdrawal responses that were quick hind paw movements (with or without licking of the hind paw) were recorded. Paw movements associated with locomotion or a shifting of weight were not considered a withdrawal response. The stimulus intensity that produced 10-15 sec baseline withdrawal latencies was used and a maximum cutoff of 20 sec was imposed. Hypersensitivity was evaluated 24 h after CFA.
Following the post-inflammogen latency assessment, rats were orally dosed (2.5 mL/kg) with test compound (10 mg/kg) or vehicle (20% hydroxypropyl beta cyclodextran). To determine the time of peak effect, latencies were redetermined 30, 60, 100, 180 and 300 min after compound administration.
Data are presented as the maximal percent reversal of hypersensitivity obtained during the 300 min test, which was calculated for each animal according to the formula: % reversal=100%×(treatment response−post-inflammogen response)/(pre-inflammogen response−post-inflammogen response)

[2] = molecular target: T1, hTRPV1 (Homo sapiens, UniProt Q8NER1); assay: Human TRPV1 (hTRPV1) functional assay, FLIPR intracellular Ca2+, capsaicin challenge; format: cell-based; settings: HEK293 cells expressing hTRPV1, capsaicin 0.030 μM challenge; for IC50: derived from a variety of test concentrations, read-out: IC50 value (symbol c); for inhibition at 0.5 µM: test concentration of 0.5 μm, read-out: percent inhibition (symbol a); for inhibition at 0.2 µM: test concentration of 0.2 μm, read-out: percent inhibition (symbol b)
T1 construct: expressed in transfected cells; host or cells: HEK293
How it was run: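 HEK293 cells expressing the channel, loaded with Calcium 3 dye, were exposed to compounds for 5 min before capsaicin 0.030 μM (~80% maximal). FLIPR Ca2+ read; IC50/EC50 from quadruplicate concentration-response, or percent inhibition at 0.5 μm or 0.2 μm.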

T1 sequence (Q8NER1 whole entry): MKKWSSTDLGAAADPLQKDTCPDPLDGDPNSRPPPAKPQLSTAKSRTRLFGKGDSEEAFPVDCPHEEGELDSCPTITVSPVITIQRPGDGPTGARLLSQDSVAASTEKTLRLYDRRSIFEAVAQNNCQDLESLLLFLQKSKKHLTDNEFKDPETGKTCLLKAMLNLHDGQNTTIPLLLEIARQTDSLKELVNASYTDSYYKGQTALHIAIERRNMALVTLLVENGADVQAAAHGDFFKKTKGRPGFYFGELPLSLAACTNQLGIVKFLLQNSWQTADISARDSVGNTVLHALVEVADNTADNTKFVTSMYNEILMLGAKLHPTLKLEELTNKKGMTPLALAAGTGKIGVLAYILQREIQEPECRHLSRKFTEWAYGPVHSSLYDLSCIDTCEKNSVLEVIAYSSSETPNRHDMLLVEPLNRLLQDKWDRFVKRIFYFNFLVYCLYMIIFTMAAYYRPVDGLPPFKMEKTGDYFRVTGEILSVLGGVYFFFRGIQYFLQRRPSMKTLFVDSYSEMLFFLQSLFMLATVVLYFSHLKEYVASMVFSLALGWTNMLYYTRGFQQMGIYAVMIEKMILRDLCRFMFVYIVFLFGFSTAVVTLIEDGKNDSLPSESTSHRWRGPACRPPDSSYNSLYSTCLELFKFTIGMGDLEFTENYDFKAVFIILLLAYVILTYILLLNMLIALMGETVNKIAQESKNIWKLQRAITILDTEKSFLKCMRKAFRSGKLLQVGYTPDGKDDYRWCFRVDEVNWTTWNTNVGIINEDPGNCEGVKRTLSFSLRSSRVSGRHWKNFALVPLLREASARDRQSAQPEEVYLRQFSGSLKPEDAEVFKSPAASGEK

| SMILES | IC50 [2] | inhibition at 0.5 µM [2] | inhibition at 0.2 µM [2] | inhibition in vivo at 10 mg/kg [1] |
| --- | --- | --- | --- | --- |
| NS(=O)(=O)c1ccccc1-c1ccc2[nH]c(COc3ccc(S(=O)(=O)C(F)(F)F)cc3)nc2c1 [Cpd 2, 2-[2-(4-trifluoromethanesulfonyl-phenoxymethyl)-1H-benzoimidazol-5-yl]-benzenesulfonamide] | 10 nM | 99% | – | 80% |
| NS(=O)(=O)c1ccccc1-c1ccc2[nH]c(COc3ccc(OC(F)(F)F)cc3)nc2c1 [Cpd 16, 2-[2-(4-trifluoromethoxy-phenoxymethyl)-1H-benzoimidazol-5-yl]-benzenesulfonamide] | 10 nM | 99% | – | 70% |
| CNS(=O)(=O)c1ccccc1-c1ccc2[nH]c(COc3ccc(C(F)(F)F)cc3)nc2c1 [Cpd 17, N-methyl-2-[2-(4-trifluoromethyl-phenoxymethyl)-1H-benzoimidazol-5-yl]-benzenesulfonamide] | 1 nM | 100% | – | 100% |
| CC(C)(O)c1ccccc1-c1ccc2[nH]c(COc3ccc(C(F)(F)F)cc3)nc2c1 [Cpd 21, 2-{2-[2-(4-trifluoromethyl-phenoxymethyl)-1H-benzoimidazol-5-yl]-phenyl}-propan-2-ol] | 14 nM | 99% | – | 100% |
| CC(C)C(O)c1ccccc1-c1ccc2[nH]c(COc3ccc(C(F)(F)F)cc3)nc2c1 (stereo not drawn) [Cpd 144, 2-methyl-1-{2-[2-(4-trifluoromethyl-phenoxymethyl)-1H-benzoimidazol-5-yl]-phenyl}-propan-1-ol] | 114 nM | – | 82% | – |
| CC(C)(C)C(O)c1ccccc1-c1ccc2[nH]c(COc3ccc(C(F)(F)F)cc3)nc2c1 (stereo not drawn) [Cpd 145, 2,2-dimethyl-1-{2-[2-(4-trifluoromethyl-phenoxymethyl)-1H-benzoimidazol-5-yl]-phenyl}-propan-1-ol] | – | – | 12% | – |
| CC(O)C(=O)c1ccccc1-c1ccc2[nH]c(COc3ccc(C(F)(F)F)cc3)nc2c1 (stereo not drawn) [Cpd 146, 2-hydroxy-1-{2-[2-(4-trifluoromethyl-phenoxymethyl)-1H-benzoimidazol-5-yl]-phenyl}-propan-1-one] | – | – | 72% | – |
| CC(C)(O)C(=O)c1ccccc1-c1ccc2[nH]c(COc3ccc(C(F)(F)F)cc3)nc2c1 [Cpd 147, 2-hydroxy-2-methyl-1-{2-[2-(4-trifluoromethyl-phenoxymethyl)-1H-benzoimidazol-5-yl]-phenyl}-propan-1-one] | 7 nM | – | 98% | – |
| CN(C)C(=O)C(O)c1ccccc1-c1ccc2[nH]c(COc3ccc(C(F)(F)F)cc3)nc2c1 (stereo not drawn) [Cpd 148, N,N-dimethyl-2-hydroxy-2-{2-[2-(4-trifluoromethyl-phenoxymethyl)-1H-benzoimidazol-5-yl]-phenyl}-acetamide] | 58 nM | – | 89% | – |
| CON(C)C(=O)C(O)c1ccccc1-c1ccc2[nH]c(COc3ccc(C(F)(F)F)cc3)nc2c1 (stereo not drawn) [Cpd 149, 2-hydroxy-N-methoxy-N-methyl-2-{2-[2-(4-trifluoromethyl-phenoxymethyl)-1H-benzoimidazol-5-yl]-phenyl}-acetamide] | 46 nM | – | 89% | – |
| OCC(O)c1ccccc1-c1ccc2[nH]c(COc3ccc(C(F)(F)F)cc3)nc2c1 (stereo not drawn) [Cpd 150, 1-{2-[2-(4-trifluoromethyl-phenoxymethyl)-1H-benzoimidazol-5-yl]-phenyl}-ethane-1,2-diol] | 16 nM | – | 99% | – |
| O=C(CO)c1ccccc1-c1ccc2[nH]c(COc3ccc(C(F)(F)F)cc3)nc2c1 [Cpd 151, 2-hydroxy-1-{2-[2-(4-trifluoromethyl-phenoxymethyl)-1H-benzoimidazol-5-yl]-phenyl}-ethanone] | – | – | 33% | – |
| O=C(NCCO)c1ccccc1-c1ccc2[nH]c(COc3ccc(C(F)(F)F)cc3)nc2c1 [Cpd 152, N-(2-hydroxy-ethyl)-2-[2-(4-trifluoromethyl-phenoxymethyl)-1H-benzoimidazol-5-yl]-benzamide] | – | – | 38% | – |
| CC(C)(O)CNC(=O)c1ccccc1-c1ccc2[nH]c(COc3ccc(C(F)(F)F)cc3)nc2c1 [Cpd 153, N-(2-hydroxy-2-methyl-propyl)-2-[2-(4-trifluoromethyl-phenoxymethyl)-1H-benzoimidazol-5-yl]-benzamide] | – | – | 31% | – |
| CC(O)CNC(=O)c1ccccc1-c1ccc2[nH]c(COc3ccc(C(F)(F)F)cc3)nc2c1 (stereo not drawn) [Cpd 154, N-(2-hydroxy-propyl)-2-[2-(4-trifluoromethyl-phenoxymethyl)-1H-benzoimidazol-5-yl]-benzamide] | – | – | 68% | – |
| CN(CCO)C(=O)c1ccccc1-c1ccc2[nH]c(COc3ccc(C(F)(F)F)cc3)nc2c1 [Cpd 155, N-(2-hydroxy-ethyl)-N-methyl-2-[2-(4-trifluoromethyl-phenoxymethyl)-1H-benzoimidazol-5-yl]-benzamide] | – | – | 21% | – |

Further lines, with some results ahead:

| IC50 [2] | inhibition at 0.5 µM [2] | inhibition at 0.2 µM [2] | SMILES | inhibition in vivo at 10 mg/kg [1] |
| --- | --- | --- | --- | --- |
| 78 nM | – | 76% | CC(Oc1ccc(C(F)(F)F)cc1)c1nc2cc(-c3ccccc3S(N)(=O)=O)ccc2[nH]1 (stereo not drawn) [Cpd 156, 2-{2-[1-(4-trifluoromethyl-phenoxy)-ethyl]-1H-benzoimidazol-5-yl}-benzenesulfonamide] | – |
| – | – | 20% | CCC(Oc1ccc(C(F)(F)F)cc1)c1nc2cc(-c3ccccc3S(N)(=O)=O)ccc2[nH]1 (stereo not drawn) [Cpd 157, 2-{2-[1-(4-trifluoromethyl-phenoxy)-propyl]-1H-benzoimidazol-5-yl}-benzenesulfonamide] | – |
| – | – | 13% | O=S(=O)(c1ccccc1-c1ccc2[nH]c(COc3ccc(C(F)(F)F)cc3)nc2c1)C(F)(F)F [Cpd 158, 5-(2-trifluoromethanesulfonyl-phenyl)-2-(4-trifluoromethyl-phenoxymethyl)-1H-benzoimidazole] | – |
| 22 nM | – | 90% | CC(C)(O)CS(=O)(=O)c1ccccc1-c1ccc2[nH]c(COc3ccc(C(F)(F)F)cc3)nc2c1 [Cpd 159, 2-methyl-1-{2-[2-(4-trifluoromethyl-phenoxymethyl)-1H-benzoimidazol-5-yl]-benzenesulfonyl}-propan-2-ol] | – |
| 12.5 nM | – | 90% | CC(O)CS(=O)(=O)c1ccccc1-c1ccc2[nH]c(COc3ccc(C(F)(F)F)cc3)nc2c1 (stereo not drawn) [Cpd 160, 1-{2-[2-(4-trifluoromethyl-phenoxymethyl)-1H-benzoimidazol-5-yl]-benzenesulfonyl}-propan-2-ol] | – |
| – | – | 63% | O=S(=O)(CCO)c1ccccc1-c1ccc2[nH]c(COc3ccc(S(=O)(=O)C(F)(F)F)cc3)nc2c1 [Cpd 161, 2-{2-[2-(4-trifluoromethanesulfonyl-phenoxymethyl)-1H-benzoimidazol-5-yl]-benzenesulfonyl}-ethanol] | – |
| – | – | 4% | CS(=O)(=O)c1ccc(OCc2nc3cc(-c4ccccc4S(=O)(=O)CCO)ccc3[nH]2)cc1 [Cpd 162, 2-{2-[2-(4-methanesulfonyl-phenoxymethyl)-1H-benzoimidazol-5-yl]-benzenesulfonyl}-ethanol] | – |
| 3 nM | – | 98% | CC(C)(O)c1ccccc1-c1ccc2[nH]c(COc3ccc(C4CC4)cc3)nc2c1 [Cpd 163, 2-{2-[2-(4-cyclopropyl-phenoxymethyl)-1H-benzoimidazol-5-yl]-phenyl}-propan-2-ol] | – |
| 25 nM | – | 97% | NS(=O)(=O)c1ccccc1-c1ccc2[nH]c(COc3ccc(C4CC4)cc3)nc2c1 [Cpd 164, 2-[2-(4-cyclopropyl-phenoxymethyl)-1H-benzoimidazol-5-yl]-benzenesulfonamide] | – |
| 6 nM | – | 98% | CNS(=O)(=O)c1ccccc1-c1ccc2[nH]c(COc3ccc(C4CC4)cc3)nc2c1 [Cpd 165, 2-[2-(4-cyclopropyl-phenoxymethyl)-1H-benzoimidazol-5-yl]-N-methyl-benzenesulfonamide] | – |
| 7 nM | – | 98% | CN(C)S(=O)(=O)c1ccccc1-c1ccc2[nH]c(COc3ccc(C4CC4)cc3)nc2c1 [Cpd 166, 2-[2-(4-cyclopropyl-phenoxymethyl)-1H-benzoimidazol-5-yl]-N,N-dimethyl-benzenesulfonamide] | – |
| 7 nM | – | 98% | CS(=O)(=O)c1ccccc1-c1ccc2[nH]c(COc3ccc(C4CC4)cc3)nc2c1 [Cpd 167, 2-(4-cyclopropyl-phenoxymethyl)-5-(2-methanesulfonyl-phenyl)-1H-benzoimidazole] | – |
| 24 nM | – | 97% | CS(=O)(=O)Nc1ccccc1-c1ccc2[nH]c(COc3ccc(C4CC4)cc3)nc2c1 [Cpd 168, N-{2-[2-(4-cyclopropyl-phenoxymethyl)-1H-benzoimidazol-5-yl]-phenyl}-methanesulfonamide] | – |
